The text below walks through data of PMC8876114, “Cytotoxicity and anti-HIV activities of extracts of the twigs of Croton dichogamus Pax” (BMC Complementary Medicine and Therapies, 2022).

Values after ≈ are worked out from the molar mass of the structure shown. Read-outs that look alike come from different tables or passages of the source. A value given as a limit tells only on which side of the number the result lay.

Data set [1] has as its system HIV. To be noted: cell-based in vitro assay; literature report, no reference given; cited from earlier work.
For data set [2], the system named is HIV-1IIIB laboratory-adapted strain. Nature of the data set: Anti-HIV activity test: prevention of HIV-1 cytopathic effect in MT-4 cells (MTT). The data set is classed as cell-based, Human immunodeficiency virus type 1. The settings on record: for IC50: Human immunodeficiency virus 1, MT4, read-out: IC50 (50% antiviral effect concentration); for EmaxAV (maximum antiviral effect %): inhibition of viral-induced cytopathic effect, HIV-1IIIB in MT-4 cells; for SI (selectivity index): ratio of CC50 to IC50, MT-4 cells. As to the method:
Human immunodeficiency virus type 1 (HIV-1) IIIB (also referred to as HTLV-IIIB) was obtained through the NIH HIV Reagent Program, Division of AIDS, NIAID, NIH: Human Immunodeficiency Virus-1 IIIB, ARP-398, contributed by Dr. Robert Gallo. The effects of the test compounds in preventing the cytopathic effect resulting from HIV-1 replication were evaluated by the MTT colorimetric assay described above.
The laboratory-adapted strain of human immunodeficiency virus type 1 (HIV-1IIIB) obtained from the National Institutes of Health HIV Reagent Program was used in this experiment. A total of 50 µl of different concentrations ([…]) of the test compounds were seeded into 96-well flat-bottomed microtiter culture plates containing HIV-infected MT-4 cells.
For orientation: Damage to the host cells serves as the signal in cytopathic effect assays.

Data set [3] relates to Caco-2 human colon carcinoma cell lines. To be noted: cited from earlier work.
A further data set deals with SMMC-7721. Also on record: method as in PMID 23103294. To be noted: SMMC-7721, MTT method; read-out: IC50 (cytotoxicity); cited from earlier work. For orientation: Formazan colour is commonly taken as a measure of viable cells.
The test system of the next data set is HL-60. Further details: method as in PMID 23103294. To be noted: HL-60, MTT method; read-out: IC50 (cytotoxicity); cited from earlier work.
Another data set relates to A-549. Also on record: method as in PMID 23103294. The settings on record: A-549, MTT method; read-out: IC50 (cytotoxicity); cited from earlier work.
The test system of a further data set is SW-480. Further details: method as in PMID 23103294. To be noted: SW-480, MTT method; read-out: IC50 (cytotoxicity); cited from earlier work.
Another data set has as its system MCF-7. Also on record: method as in PMID 23103294. The settings on record: MCF-7, MTT method; read-out: IC50 (cytotoxicity); cited from earlier work.
In data set [4] the test system is human T-lymphocytic MT-4 cells. The data set is classed as cell-based. The settings on record: for CC50 (50% cytotoxic concentration): MT-4 cells, MTT, mean ± S.E.M; for MNTC (maximum nontoxic concentration): human. On the procedure:
In this study, human T-lymphocytic MT-4 cells (ARP-120) were obtained through the National Institute of Health (NIH) HIV Reagent Program, Division of AIDS, National Institute of Allergy, and Infectious Diseases (NIAID), NIH: MT-4 Cells, ARP-120, contributed by Dr. Douglas Richman. The cytotoxicity test was conducted to evaluate the plant extracts' safety by measuring cell death caused by the plant extracts. The assay was conducted using the MTT colorimetric assay as described previously.
Four solvent fractions of twigs of C. dichogamus were examined for their ability to inhibit HIV-1 replication. In addition, the in vitro toxicity of these extracts to human T-lymphocytic MT-4 cells was investigated by MTT assay. […] The average absorbance value from three replicate determinations was used to express the viability of the cells as a percentage of negative controls, and the CC50 for each plant extract was determined graphically by plotting the % growth inhibition (Emaxc) against the plant extract concentration.

Data set [5] has as its system HIV. Also on record: method as in PMID 8176401. The settings on record: cited from earlier work.
For data set [6], the system named is HIV. Also on record: method as in PMID 14980692. To be noted: cited from earlier work.
Setting [7] is: HIV-1IIIB-infected MT-4 cells, MTT, mean ± S.E.M.

Regarding `CC1=CC[C@]2(C)CC(=O)[C@]3(C)C(=O)C=C(C(C)C)[C@@H]3[C@H]2CC1` [cyanthiwigin B], the “anti-HIV activity (in words)” value with HIV [1] is recorded as “Moderate anti-HIV activity”.
For the compound `Cc1cn([C@H]2C[C@H](N=[N+]=[N-])[C@@H](CO)O2)c(=O)[nH]c1=O` [AZT, zidovudine], the IC50 in data set [2] stood at 0.002 µg/mL (≈ 0.00748 µM). The “EmaxAV (maximum antiviral effect %)” value in [2] (mean ± S.E.M) is recorded as 83.5 ± 0.57%; in data set [2] (mean ± S.E.M, listed as zidovudine), 83.5%.
Turning to furocrotinsulolide, the “cytotoxicity activity (in words)” value in data set [3] (Caco-2 cell line, at 30 μm) is recorded as “modest cytotoxicity activity”.
Consider maninsigin D, for which the IC50 in the data set on SMMC-7721, in the data set with HL-60, in the data set with A-549, in the data set on SW-480 and in the data set on MCF-7 was over 40 µM in each case.
On to `C[C@H](Cn1cnc2c(N)ncnc21)OCP(=O)(O)O` [TDF, tenofovir], for which, in data set [2] (setting [7]), the IC50 worked out at 0.04 ± 0.01 µg/mL (≈ 0.139 µM). In data set [2] (mean ± S.E.M), the “EmaxAV (maximum antiviral effect %)” value was 80.55 ± 0.46%. Further, in data set [4], the “CC50 (50% cytotoxic concentration)” value turned out to be 6.73 ± 0.24 µg/mL (≈ 23.4 µM) and the “MNTC (maximum nontoxic concentration)” value is given as 4.92 ± 0.71 µg/mL.
With 10-epi-manninsigin D, the decrease of viability in data set [3] (Caco-2, at a concentration of 100 mM) is 43%.
For `CC1(C)CC[C@]2(C(=O)O)CC[C@]3(C)C(=CC[C@@H]4[C@@]5(C)CC[C@H](O)C(C)(C)[C@@H]5CC[C@]43C)[C@@H]2C1` [oleanolic acid], the “anti-HIV activity (in words)” value in the data set on HIV [5] is given as “exhibited anti-HIV activity”.
Take `CC(=O)[C@@H]1CC[C@]2(C(=O)O)CC[C@]3(C)[C@H](CC[C@@H]4[C@@]5(C)CC[C@H](O)C(C)(C)[C@@H]5CC[C@]43C)[C@@H]12` [platanic acid]: the “anti-HIV activity (in words)” value in the data set with HIV [5] is “exhibited anti-HIV activity”.
For the compound `Nc1nc(NC2CC2)c2ncn([C@H]3C=C[C@@H](CO)C3)c2n1` [ABC, abacavir], the IC50 in [2] (setting [7]) came out at 0.05 ± 0.031 µg/mL (≈ 0.175 µM). Also, in [2] (mean ± S.E.M), the “EmaxAV (maximum antiviral effect %)” value is 58.67 ± 0.43%. In addition, the “SI (selectivity index)” value in data set [2] came out at 5.0. Besides, in [4], the “CC50 (50% cytotoxic concentration)” value amounted to 0.26 ± 0.00 µg/mL (≈ 0.908 µM) and the “MNTC (maximum nontoxic concentration)” value is given as 0.18 ± 0.03 µg/mL.
In the case of `C=C(C)[C@@H]1CC[C@]2(C(=O)O)CC[C@]3(C)[C@H](CC[C@@H]4[C@@]5(C)CC[C@H](O)C(C)(C)[C@@H]5CC[C@]43C)[C@@H]12` [betulinic acid], the “anti-HIV activity (in words)” value in the data set with HIV [5] is given as “exhibited anti-HIV activity”.
Take acetin: the “anti-HIV activity (in words)” value in the data set on HIV [6] was “potent anti-HIV activity”.
Take `Cc1ccnc2c1NC(=O)c1cccnc1N2C1CC1` [NVP, nevirapine]: in [2] (setting [7]), the IC50 was found to be 0.24 ± 0.09 µg/mL (≈ 0.901 µM). For the same compound, the “EmaxAV (maximum antiviral effect %)” value in data set [2] (mean ± S.E.M) was 72.53 ± 0.47%. Moreover, in data set [2], the “SI (selectivity index)” value was 3.5. Moreover, in data set [4], the “CC50 (50% cytotoxic concentration)” value came out at 0.82 ± 0.0 µg/mL (≈ 3.08 µM) and the “MNTC (maximum nontoxic concentration)” value worked out at 0.57 ± 0.0 µg/mL.
